Results on one molecule are retold here after paper PMC2902375 (Neuroreport, 2009).

For this experiment, the target named is CACNA1H (Homo sapiens, UniProt O95180). Description: whole-cell voltage clamp, HEK-293. It counts as cell-based.
Sequence of CACNA1H (O95180 whole entry): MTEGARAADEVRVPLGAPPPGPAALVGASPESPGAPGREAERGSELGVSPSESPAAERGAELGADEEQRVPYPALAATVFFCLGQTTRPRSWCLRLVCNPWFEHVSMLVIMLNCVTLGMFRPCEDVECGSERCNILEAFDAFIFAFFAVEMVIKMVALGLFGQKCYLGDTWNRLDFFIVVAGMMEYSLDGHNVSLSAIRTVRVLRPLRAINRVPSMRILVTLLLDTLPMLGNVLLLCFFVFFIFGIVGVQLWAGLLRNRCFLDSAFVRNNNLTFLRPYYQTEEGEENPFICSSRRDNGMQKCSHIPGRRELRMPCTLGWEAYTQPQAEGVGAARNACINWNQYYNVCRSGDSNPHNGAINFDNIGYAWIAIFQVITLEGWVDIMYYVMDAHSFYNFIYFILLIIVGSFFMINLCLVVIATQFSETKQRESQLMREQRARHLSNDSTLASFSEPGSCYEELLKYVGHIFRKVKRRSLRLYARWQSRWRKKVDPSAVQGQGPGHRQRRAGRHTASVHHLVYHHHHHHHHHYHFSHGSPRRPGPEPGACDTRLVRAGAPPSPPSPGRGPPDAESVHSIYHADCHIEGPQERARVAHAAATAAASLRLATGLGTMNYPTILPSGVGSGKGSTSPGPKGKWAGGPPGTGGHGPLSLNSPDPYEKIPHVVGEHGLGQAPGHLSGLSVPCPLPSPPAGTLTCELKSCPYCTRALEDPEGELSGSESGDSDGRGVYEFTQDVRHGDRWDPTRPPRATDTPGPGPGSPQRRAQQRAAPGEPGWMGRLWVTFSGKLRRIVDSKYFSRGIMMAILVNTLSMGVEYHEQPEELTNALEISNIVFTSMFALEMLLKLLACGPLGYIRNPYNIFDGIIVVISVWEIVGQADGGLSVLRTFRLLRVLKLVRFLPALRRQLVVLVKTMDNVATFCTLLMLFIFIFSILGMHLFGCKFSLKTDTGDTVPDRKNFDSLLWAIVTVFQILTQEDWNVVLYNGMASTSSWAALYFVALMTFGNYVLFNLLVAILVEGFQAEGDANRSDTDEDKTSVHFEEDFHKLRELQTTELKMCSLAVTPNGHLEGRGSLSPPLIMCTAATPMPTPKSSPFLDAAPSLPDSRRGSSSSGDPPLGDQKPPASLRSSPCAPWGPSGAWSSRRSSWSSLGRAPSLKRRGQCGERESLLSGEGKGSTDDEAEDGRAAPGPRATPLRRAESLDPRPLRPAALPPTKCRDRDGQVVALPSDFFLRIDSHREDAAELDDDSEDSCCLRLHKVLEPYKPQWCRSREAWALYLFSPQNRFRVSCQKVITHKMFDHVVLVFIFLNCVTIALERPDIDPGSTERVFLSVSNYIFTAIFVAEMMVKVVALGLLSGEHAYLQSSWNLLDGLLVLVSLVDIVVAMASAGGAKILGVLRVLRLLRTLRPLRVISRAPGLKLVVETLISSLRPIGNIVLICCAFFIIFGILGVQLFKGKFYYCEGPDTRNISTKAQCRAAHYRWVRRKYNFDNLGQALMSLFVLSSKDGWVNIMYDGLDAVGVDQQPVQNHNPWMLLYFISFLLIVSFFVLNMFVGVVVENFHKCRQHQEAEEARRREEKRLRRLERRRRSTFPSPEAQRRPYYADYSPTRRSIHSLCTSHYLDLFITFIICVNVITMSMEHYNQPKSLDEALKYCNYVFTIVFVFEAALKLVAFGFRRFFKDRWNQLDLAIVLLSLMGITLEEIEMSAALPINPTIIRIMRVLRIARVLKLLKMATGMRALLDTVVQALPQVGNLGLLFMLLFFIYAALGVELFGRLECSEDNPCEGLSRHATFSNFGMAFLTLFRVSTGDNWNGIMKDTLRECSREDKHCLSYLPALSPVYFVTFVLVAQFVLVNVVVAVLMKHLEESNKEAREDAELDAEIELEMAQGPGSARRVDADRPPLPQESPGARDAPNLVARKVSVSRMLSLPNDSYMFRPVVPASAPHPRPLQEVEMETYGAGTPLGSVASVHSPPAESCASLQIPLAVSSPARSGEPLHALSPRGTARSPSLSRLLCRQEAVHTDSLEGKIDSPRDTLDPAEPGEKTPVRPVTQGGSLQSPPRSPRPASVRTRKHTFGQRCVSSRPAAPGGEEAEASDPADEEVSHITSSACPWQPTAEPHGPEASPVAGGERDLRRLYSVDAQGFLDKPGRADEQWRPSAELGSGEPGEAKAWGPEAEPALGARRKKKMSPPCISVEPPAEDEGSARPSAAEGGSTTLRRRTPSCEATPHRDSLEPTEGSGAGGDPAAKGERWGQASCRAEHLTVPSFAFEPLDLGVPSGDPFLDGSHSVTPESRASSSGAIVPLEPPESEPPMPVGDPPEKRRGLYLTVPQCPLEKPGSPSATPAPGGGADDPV

One may read the IC50 as the concentration at which inhibition is half-maximal. In turn, `Fc1ccc(CN(CC(F)(F)F)C2CCN(CCCc3c[nH]c4ccc(Cn5cncn5)cc34)CC2)cc1` [TTA-I1, N-(4-fluorobenzyl)-1-{3-[5-(1H-1,2,4-triazol-1-ylmethyl)-1H-indol-3-yl]propyl}-N-(2,2,2-trifluoroethyl)piperidin-4-amine] registered a 50% inhibitory concentration (IC50) of 3 nM.
